Data taken from patent publication US20220275458A1, “PREDICTION OF CANCER THERAPY EFFICACY” (UNIVERSITY OF MASSACHUSETTS, priority 2019, published 2022).

How the values were obtained:
[1] = tested on: RPE1 cells; assay: Cell survival assays in Control, FANCJ K/O and BRCA1 K/O RPE1 cells; type: cell-based, human; conditions: for sensitivity at therapeutic range: 0.5 uM Olaparib
Procedure: (§1) Cells were seeded onto 96-well plates (500 cells per well, performed in triplicate for each experiment group) and incubated overnight. The next day, cells were treated with increasing doses of drugs indicated in corresponding figures and maintained in complete media for 5 to 7 days. Percentage survival was measured photometrically using a CellTiter-Glo 2.0 viability assay (Promega) in a microplate reader (Beckman Coulter DTX 880 Multimode Detector).

[2] = tested on: U2OS cells; assay: Electron microscopy of reversed replication forks; type: cell-based, human; conditions: 4 mM HU
Procedure: To investigate the effect of TLS on the fine replication fork architecture, psoralen cross-linking coupled to reversed fork intermediates were detected with electron microscopy (EM) with or without elevated TLS. Following 4 mM HU treatment, a substantial fraction of reversed replication forks were found in FANCJ^WT and empty vector U2OS cells (˜26% and 23%, respectively). […] See, FIG. 6D.
For the EM analysis of replication intermediates, 5-10×10^6 U2OS cells treated with or without 4 mM HU were collected and genomic DNA was cross-linked by two rounds of incubation in 10 μg ml-1 4,5,8-trimethylpsoralen (Sigma-Aldrich) and 3 min of irradiation with 366 nm UV light on a precooled metal block10,26. Cells were lysed and genomic DNA was isolated from the nuclei by proteinase K (Roche) digestion and phenol-chloroform extraction. DNA was purified by isopropanol precipitation, digested with PvuII HF in the proper buffer for 3-5 h at 37° C. and replication intermediates were enriched on a benzoylated naphthoylated DEAE-cellulose (Sigma-Aldrich) column. EM samples were prepared by spreading the DNA on carbon-coated grids in the presence of benzyl-dimethyl-alkylammonium chloride and visualized by platinum rotary shadowing. Images were acquired on a transmission electron microscope (JEOL 1200 EX) with side-mounted camera (AMTXR41 supported by AMT software v601) and analyzed with ImageJ (National Institutes of Health). EM analysis allows distinguishing duplex DNA—which is expected to appear as a 10 nm thick fiber, after the platinum/carbon coating step necessary for EM visualization—from ssDNA, which has a reduced thickness of 5-7 nm. The criteria used for the unequivocal assignment of reversed forks include the presence of a rhomboid structure at the junction itself in order to provide a clear indication that the junction is opened up and that the four-way junction structure is not simply the result of the occasional crossing of two DNA molecules^25. […]

[3] = tested on: pro-TLS U2OS and HCT15 cells; assay: Colony formation assay with ATRi or Wee1i alone or with TLSi; type: cell-based, human; conditions: for clonogenic survival: pro-TLS U2OS cells compared to non-TLS dependent cells; for response in colony formation assay: pro-TLS cancer cell line HCT15
Procedure: Currently, there is a major clinical effort to combat cancer by induction of replication stress through inhibition of ATR or the mitotic checkpoint kinase, Wee1 (Bukhari et al., 2019). Given that these drugs induce replication gaps, it was considered that if gaps were the sensitizing lesion, TLS could also interfere with their effectiveness. […] See, FIG. 55A, 5B and FIG. 56A-D; (Bukhari et al., 2019).
For colony formation assays either 500 or 1000 cells per well were seeded into 6 well plates and were treated continuously with or without TLSi. Once the colonies had developed, the cells were fixed with 90% methanol and then stained with 0.05% (w/v) crystal violet solution. Plates were then imaged using ChemiDocTM Touch Imaging System (BioRad).

[4] = tested on: TLS cancer vs non-TLS cancer or non-cancer cells; assay: Combined assay: EdU replication and ssDNA gaps (TLS specificity); type: cell-based, human; conditions: U2OS cell lines; HU plus ATR inhibitor
Procedure: A combination assay was performed in a high-throughput manner using 384-well plates. This assay served as a rapid and efficient method to determine the anti-TLS activity of the lead compounds and novel analogues. […] Specifically, the assay identifies compounds that cause TLS cells, but not non-TLS cells, to lose replication (green) and gain ssDNA gaps (red). […] Colors can be identified using a high content and high throughput imaging camera. […] Moreover, red and green fluorescent readouts are readable/quantifiable from full well images at 20×. Several positive and negative controls that may be employed in parallel with the screen to induce gaps or suppress gaps. In particular, under these assay conditions replication with gaps are induced when ATR is inhibited.
A combined assay can be performed to first analyze the ability of these TLSi's to inhibit global replication with concomitant induction of ssDNA in TLS cancer vs non-TLS cancer or non-cancer cells. Second, a colony formation assays in each of these models to determine whether the TLSi's selectively reduce colony formation in TLS cancer cells.
Immunofluorescence was performed as described previously^27. Cells were grown on coverslips in 10 μM BrdU for 48 h before the treatment with drugs. Cells were then treated with the aforementioned drugs for 2 h. […]

[5] = tested on: BR5-R1 cells; assay: Cell survival assays for T2, BR5 and BR5-R1 cells; type: cell-based, mouse; conditions: BR5-R1 PARPi-resistant cells; VE-821 1 μM co-incubated with olaparib
Procedure: To determine whether gap suppression mechanisms occur in models of de novo PARPi resistance, cell lines were analyzed that were initially sensitive to PARPi and then had gained PARPi resistance while propagated in tissue culture^41. BRCA1-deficient mouse ovarian tumor cell line, BR5, was utilized and its derived PARPi-resistant cell line, BR5-R1^41. PARPi sensitivity of BR5 was confirmed as compared to BR5-R1 and BRCA1 proficient T2 cells. See, FIG. 41A. […] See, FIG. 41B. […] See, FIGS. 41B and 41C. Thus, BR5-R1 cells resemble FANCJ deficient cells, in that they both lack PARPi induced-sensitivity, lengthening, or gaps, but remain sensitive to cisplatin. See, FIG. 42A. […] See, FIGS. 41A, 41C and 42A.
as §1

[6] = tested on: PEO1 and C4-2 cells; assay: Cell survival assay, cisplatin, PEO1 and C4-2; type: cell-based, human
Procedure: Cells were plated at 500 cells per well in the center wells of a 96 well plate in 200 ul volume and allowed to adhere for 36 h. Subsequently, drugs were added in a 100 ul volume and the cells were incubated for 10 days. CellTiter-Glo 2.0 (Promega) was used to quantify cell number by ATP. To prevent evaporation, all blank wells in the 96 well plate were filled with media, and each plate was placed in a humid chamber with PBS.

[7] = tested on: BRCA-RAD51 pathway proficient or deficient cell lines; assay: PARPi response of model cell systems (Table 4 summary); type: cell-based
Procedure: In the above tested model systems, HR or FP sometimes correlate with PARPi resistance whereas ssDNA gap suppression always correlates. Moreover, defects in HR or FP sometimes correlate with PARPi sensitivity whereas gaps always correlate.
as §1

[8] = tested on: RPE1 cells; assay: DNA fiber assay following olaparib treatment; type: cell-based, human; conditions: 10 μM olaparib, 2 h
Procedure: Cells were labeled by sequential incorporation of two different nucleotide analogs, IdU and CldU, into nascent DNA strands for the indicated time and conditions. After nucleotide analogs were incorporated in vivo, the cells were collected, washed, spotted, and lysed on positively charged microscope slides by […] spreading buffer for 8 min at room temperature. For experiments with the ssDNA-specific endonuclease S1, after the CldU pulse, cells were treated with CSK100 buffer for 10 min at room temperature, then incubated with S1 nuclease buffer with or without 20 U/mL S1 nuclease (Invitrogen, 18001-016) for 30 min at 37 C. The cells were then scraped in PBS +0.1% BSA and centrifuged at 7,000 rpm for 5 min at 4 C. Cell pellets were resuspended at […] and lysed with lysis solution on slides. Individual DNA fibers were released and spread by tilting the slides at 45 degrees. After air-drying, fibers were fixed by 3:1 methanol/acetic acid at room temperature for 3 min. After air-drying again, fibers were rehydrated in PBS, denatured with 2.5 M HCl for 30 min, washed with PBS, and blocked with blocking buffer for 1 hr. […] Finally, visualization of green and/or red signals by fluorescence microscopy (Axioplan 2 imaging, Zeiss) provided information about the active replication directionality at the single-molecule level.

Structure (SMILES): CC[C@@]1(O)C(=O)OCc2c1cc1n(c2=O)Cc2cc3ccccc3nc2-1 [CPT, camptothecin]
- sensitivity in cell survival assay ([1]; FANCJ K/O RPE1 cells, CPT): sensitive

Structure (SMILES): NC(=O)NO [HU, hydroxyurea]
- frequency of fork reversal events ([2]; FANCJ S990A U2OS cells): ~11%
- fraction of reversed replication forks ([2]; FANCJ WT U2OS cells): ~26%
- fraction of reversed replication forks ([2]; empty vector U2OS cells): 23%

Structure (SMILES): C=CCn1c(=O)c2cnc(Nc3ccc(N4CCN(C)CC4)cc3)nc2n1-c1cccc(C(C)(C)O)n1 [MK1775]
- clonogenic survival [3]: greater clonogenic survival
- response in colony formation assay [3]: resistance

Structure (SMILES): CS(=O)(=O)c1ccc(-c2cnc(N)c(C(=O)Nc3ccccc3)n2)cc1 [VE-821]
- replication and ssDNA gaps during stress [4]: promoted replication during stress, but with significant ssDNA gap induction
- effect on PARPi sensitivity [5]: re-established PARPi sensitivity
- clonogenic survival [3]: greater clonogenic survival
- response in colony formation assay [3]: resistance

Structure (SMILES): N.N.[Cl][Pt][Cl] [cisplatin]
- sensitivity in cell survival assay ([1]; BRCA1 K/O RPE1 cells, cisplatin): sensitive
- sensitivity in cell survival assay ([1]; FANCJ K/O RPE1 cells, cisplatin): sensitive
- cisplatin response ([6]; C4-2 cells, BRCA2 proficient PEO1 reversion line): resistant
- cisplatin response ([6]; PEO1 cells, truncated BRCA2): hypersensitive

Structure (SMILES): O=C(c1cc(Cc2n[nH]c(=O)c3ccccc23)ccc1F)N1CCN(C(=O)C2CC2)CC1 [olaparib]
- sensitivity at therapeutic range ([1]; BRCA1 K/O RPE cells): sensitive
- sensitivity at therapeutic range ([1]; control and FANCJ K/O cells): not sensitive
- sensitivity in cell survival assay ([1]; BRCA1 K/O RPE1 cells, olaparib): sensitive
- sensitivity in cell survival assay ([1]; FANCJ K/O RPE1 cells, olaparib): not sensitize
- PARPi response ([7]; BRCA1/2 deficient): sensitive
- PARPi response ([7]; BRCA1/2 proficient): resistant
- PARPi response ([7]; BRCA1 and 53BP1 deficient): resistant
- PARPi response ([7]; BRCA2 S3291A mutant): resistant
- PARPi response ([7]; BRCA2 and CHD4 deficient): resistant
- PARPi response ([7]; FANCJ deficient): resistant
- PARPi response ([7]; RAD51 T131P mutant): sensitive
- PARPi response ([7]; RAD51 T131P mutant and RADX deficient): sensitive
- replication tract length [8]: lengthens replication tracts
